PubChem BioAssay (NCI)
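1) Cells in 96-well plates. 2) Compound, 48 h, 5 concentrations. 3) Linear interpolation between surrounding doses. 4) Unreached endpoint = highest concentration. GI50 marks 50% less growth. Definition used: TGI = concentration required for complete inhibition of growth.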

System: OVCAR-5 ovarian
Assay: inhibition of tumour cell growth, NCI panel, 48 h

| SMILES | TGI [µM] |
| --- | --- |
| O=c1cc(-c2cccc3ccccc23)[nH]c2ncccc12 | > 100 |
| COC(=O)c1ccccc1/C=C1\Cc2ccc(C)c(C)c2C1=O | > 100 |
| COc1cc(C2c3cc4c(cc3OC3(OC)COC(=O)C23)OCO4)cc(OC)c1OC(C)=O (stereo not given) | > 41.4 |
| CN1CCOC(c2ccccc2)O1 (stereo not given) | > 100 |
| O=C(/C=C/c1cc2ccccc2o1)N1CCN(c2ccccn2)CC1 | > 100 |
| CCCNC(=S)NNC(=O)CSc1nc(-c2ccccc2)c(-c2ccccc2)[nH]1 | > 100 |
| CC(=O)c1sc(Nc2nnc(-c3ccc(-c4nnc(Nc5nc(C)c(C(C)=O)s5)o4)cc3)o2)nc1C | > 10 |
| CC1c2c(Cl)nc3ccccc3c2Oc2c1c(Cl)nc1ccccc21 | > 100 |
| COC1(OC)C(N(C)C)=C(Cl)C(=O)/C1=C/C=O | > 100 |
| OC1C#CCSCC#C/C=C\1 (stereo not given) | > 100 |
| CC(=O)Oc1ccc2c(C)cc(=O)oc2c1OC(C)=O | > 100 |
| N#Cc1c2ccccc2cn1-c1ccc(F)cc1 | > 100 |
| Cc1ccccc1N1C(=O)C2C=CC(n3[nH]c(=O)n(Cc4ccccc4)c3=O)CC2C1=O (stereo not given) | > 100 |
| CN(CC(=O)O)c1ncc2c(n1)CCCC2 | > 100 |
| COc1ccc(/C=C2\N=C(SC)N(CN3CCOCC3)C2=O)cc1 | > 100 |
| O=C(Nc1nc(C23CC4CC(CC(C4)C2)C3)cs1)c1cc2ccc(O)cc2oc1=O | 48.5 |
| O=C1C(c2c(O)[nH]c3ccc(F)cc23)=Nc2ccccc21 | > 100 |
| CCOC(=O)c1nnc2c(C(=O)OCC)c3ccccc3n2c1N | > 100 |

| SMILES | TGI [µM] |
| --- | --- |
| S=c1sc2c(Cl)nc(Cl)nc2n1-c1ccccc1 | > 100 |
| CC12CC(c3ccccc3O1)C(C(=O)Nc1ccc(Cl)cc1Cl)C(=O)N2 (stereo not given) | > 100 |
| CCC(C)OC(=O)/C(Br)=C1/OC(=O)c2ccccc2-c2ccccc21 (stereo not given) | > 100 |
| NC(=O)C(C(N)=O)=C(O)C(=O)/C=C(\O)c1ccccc1 | > 100 |
| Cn1ccc(C(=O)NCCN(CCNC(=O)c2ccn(C)c(=O)c2O)CCNC(=O)c2cccc(=O)n2O)c(O)c1=O | > 100 |
| COC(=O)c1cc2ccc(N)nc2[nH]c1=O | > 100 |
| Cc1cc(S(=O)(=O)Nc2n[nH]c(N)n2)c(SCC(=O)O)cc1Cl | > 10 |
| NNC(=O)c1n[nH]nc1C(=O)NN | > 100 |
| O=C(O)[C@@H]1CCS(=O)(=O)N1 | > 100 |
| CC(C)(C)OC(=O)[C@H]1CCC(=S)N1Cc1ccccc1 | > 100 |
| COc1ccc(S(=O)(=O)c2nnc(S(=O)(=O)Cc3ccccc3)s2)cc1 | 54.5 |
| O=[N+]([O-])c1ccc2c(c1)C1=C(CO2)Cc2ccccc2O1 | 54.7 |
| NC(=O)C12CC3CC(CC(F)(C3)C1)C2 | > 100 |
| O=c1c(/C=C/c2c(O)ccc3ccccc23)nnc2sc(-c3cccc(Br)c3)nn12 | > 100 |
| Cc1c(N=Nc2ccc(Cl)cc2)c(-c2ccccc2)n(C2OC(CO)C(O)C(O)C2O)c(=S)c1C#N (stereo not given) | 33.7 |
| CC(=O)Oc1c2c(c(O)c3ccccc13)C(n1cnc3c(ncn3C3OC(CO)C4OC(C)(C)OC43)c1=N)CCC2 (stereo not given) | 35.9 |
| CN(C)CCC(=O)c1ccccc1 | > 57.6 |
| CCOc1ccccc1NC(=O)C(=O)CC(=O)c1sc(Nc2nnc(-c3ccc(Cl)c(Cl)c3)o2)nc1C | > 100 |

System: NCI-H23 lung
Assay: inhibition of tumour cell growth, NCI panel, 48 h

| SMILES | TGI [µM] |
| --- | --- |
| O=c1cc(-c2cccc3ccccc23)[nH]c2ncccc12 | > 100 |
| COC(=O)c1ccccc1/C=C1\Cc2ccc(C)c(C)c2C1=O | > 100 |
| COc1cc(C2c3cc4c(cc3OC3(OC)COC(=O)C23)OCO4)cc(OC)c1OC(C)=O (stereo not given) | > 100 |
| CN1CCOC(c2ccccc2)O1 (stereo not given) | > 100 |
| O=C(/C=C/c1cc2ccccc2o1)N1CCN(c2ccccn2)CC1 | > 100 |
| CCCNC(=S)NNC(=O)CSc1nc(-c2ccccc2)c(-c2ccccc2)[nH]1 | > 100 |
| CC(=O)c1sc(Nc2nnc(-c3ccc(-c4nnc(Nc5nc(C)c(C(C)=O)s5)o4)cc3)o2)nc1C | > 100 |
| CC1c2c(Cl)nc3ccccc3c2Oc2c1c(Cl)nc1ccccc21 | > 100 |
| COC1(OC)C(N(C)C)=C(Cl)C(=O)/C1=C/C=O | > 100 |
| OC1C#CCSCC#C/C=C\1 (stereo not given) | > 100 |
| CC(=O)Oc1ccc2c(C)cc(=O)oc2c1OC(C)=O | > 100 |
| N#Cc1c2ccccc2cn1-c1ccc(F)cc1 | 56.2 |
| Cc1ccccc1N1C(=O)C2C=CC(n3[nH]c(=O)n(Cc4ccccc4)c3=O)CC2C1=O (stereo not given) | > 100 |
| CN(CC(=O)O)c1ncc2c(n1)CCCC2 | > 100 |
| COc1ccc(/C=C2\N=C(SC)N(CN3CCOCC3)C2=O)cc1 | > 100 |
| O=C(Nc1nc(C23CC4CC(CC(C4)C2)C3)cs1)c1cc2ccc(O)cc2oc1=O | 38.4 |
| O=C1C(c2c(O)[nH]c3ccc(F)cc23)=Nc2ccccc21 | > 100 |
| CCOC(=O)c1nnc2c(C(=O)OCC)c3ccccc3n2c1N | > 100 |
| S=c1sc2c(Cl)nc(Cl)nc2n1-c1ccccc1 | 32.9 |

| SMILES | TGI [µM] |
| --- | --- |
| CC12CC(c3ccccc3O1)C(C(=O)Nc1ccc(Cl)cc1Cl)C(=O)N2 (stereo not given) | > 100 |
| CCC(C)OC(=O)/C(Br)=C1/OC(=O)c2ccccc2-c2ccccc21 (stereo not given) | > 100 |
| NC(=O)C(C(N)=O)=C(O)C(=O)/C=C(\O)c1ccccc1 | > 100 |
| Cn1ccc(C(=O)NCCN(CCNC(=O)c2ccn(C)c(=O)c2O)CCNC(=O)c2cccc(=O)n2O)c(O)c1=O | > 100 |
| COC(=O)c1cc2ccc(N)nc2[nH]c1=O | > 100 |
| Cc1cc(S(=O)(=O)Nc2n[nH]c(N)n2)c(SCC(=O)O)cc1Cl | > 10 |
| NNC(=O)c1n[nH]nc1C(=O)NN | > 100 |
| O=C(O)[C@@H]1CCS(=O)(=O)N1 | > 100 |
| CC(C)(C)OC(=O)[C@H]1CCC(=S)N1Cc1ccccc1 | > 100 |
| COc1ccc(S(=O)(=O)c2nnc(S(=O)(=O)Cc3ccccc3)s2)cc1 | 62.3 |
| O=[N+]([O-])c1ccc2c(c1)C1=C(CO2)Cc2ccccc2O1 | 59.2 |
| NC(=O)C12CC3CC(CC(F)(C3)C1)C2 | > 100 |
| O=c1c(/C=C/c2c(O)ccc3ccccc23)nnc2sc(-c3cccc(Br)c3)nn12 | 40.3 |
| Cc1c(N=Nc2ccc(Cl)cc2)c(-c2ccccc2)n(C2OC(CO)C(O)C(O)C2O)c(=S)c1C#N (stereo not given) | 22.5 |
| CC(=O)Oc1c2c(c(O)c3ccccc13)C(n1cnc3c(ncn3C3OC(CO)C4OC(C)(C)OC43)c1=N)CCC2 (stereo not given) | 36.7 |
| N#Cc1c(N)n(-c2cccc(C(=O)O)c2)c(=O)c2cc([N+](=O)[O-])ccc12 | > 100 |
| CN(C)CCC(=O)c1ccccc1 | > 74 |
| CCOc1ccccc1NC(=O)C(=O)CC(=O)c1sc(Nc2nnc(-c3ccc(Cl)c(Cl)c3)o2)nc1C | > 100 |

System: MDA-MB-231 breast
Assay: inhibition of tumour cell growth, NCI panel, 48 h

| SMILES | GI50 [µM] | TGI [µM] |
| --- | --- | --- |
| O=c1cc(-c2cccc3ccccc23)[nH]c2ncccc12 | 0.0479 | > 100 |
| COc1cc(C2c3cc4c(cc3OC3(OC)COC(=O)C23)OCO4)cc(OC)c1OC(C)=O (stereo not given) | – | > 100 |
| O=C(/C=C/c1cc2ccccc2o1)N1CCN(c2ccccn2)CC1 | – | > 100 |
| OC1C#CCSCC#C/C=C\1 (stereo not given) | – | > 100 |
| CC(=O)Oc1ccc2c(C)cc(=O)oc2c1OC(C)=O | – | > 100 |
| CN(CC(=O)O)c1ncc2c(n1)CCCC2 | – | > 100 |
| COc1ccc(/C=C2\N=C(SC)N(CN3CCOCC3)C2=O)cc1 | – | > 100 |
| O=C(Nc1nc(C23CC4CC(CC(C4)C2)C3)cs1)c1cc2ccc(O)cc2oc1=O | – | 48.7 |
| O=C1C(c2c(O)[nH]c3ccc(F)cc23)=Nc2ccccc21 | – | 54.6 |
| CCOC(=O)c1nnc2c(C(=O)OCC)c3ccccc3n2c1N | – | 87.8 |
| NC(=O)C(C(N)=O)=C(O)C(=O)/C=C(\O)c1ccccc1 | – | > 100 |
| Cn1ccc(C(=O)NCCN(CCNC(=O)c2ccn(C)c(=O)c2O)CCNC(=O)c2cccc(=O)n2O)c(O)c1=O | – | > 100 |
| COC(=O)c1cc2ccc(N)nc2[nH]c1=O | – | > 100 |
| NNC(=O)c1n[nH]nc1C(=O)NN | – | > 100 |
| O=C(O)[C@@H]1CCS(=O)(=O)N1 | – | > 100 |
| CC(C)(C)OC(=O)[C@H]1CCC(=S)N1Cc1ccccc1 | – | > 100 |
| COc1ccc(S(=O)(=O)c2nnc(S(=O)(=O)Cc3ccccc3)s2)cc1 | – | 62.3 |
| O=[N+]([O-])c1ccc2c(c1)C1=C(CO2)Cc2ccccc2O1 | – | 51.4 |
| Cc1c(N=Nc2ccc(Cl)cc2)c(-c2ccccc2)n(C2OC(CO)C(O)C(O)C2O)c(=S)c1C#N (stereo not given) | – | 39.2 |
| N#Cc1c(N)n(-c2cccc(C(=O)O)c2)c(=O)c2cc([N+](=O)[O-])ccc12 | – | > 100 |

System: SW-620 colon
Assay: inhibition of tumour cell growth, NCI panel, 48 h

| SMILES | TGI [µM] |
| --- | --- |
| O=c1cc(-c2cccc3ccccc23)[nH]c2ncccc12 | > 100 |
| COC(=O)c1ccccc1/C=C1\Cc2ccc(C)c(C)c2C1=O | > 100 |
| COc1cc(C2c3cc4c(cc3OC3(OC)COC(=O)C23)OCO4)cc(OC)c1OC(C)=O (stereo not given) | > 100 |
| CN1CCOC(c2ccccc2)O1 (stereo not given) | > 100 |
| O=C(/C=C/c1cc2ccccc2o1)N1CCN(c2ccccn2)CC1 | > 100 |
| CCCNC(=S)NNC(=O)CSc1nc(-c2ccccc2)c(-c2ccccc2)[nH]1 | > 100 |
| CC(=O)c1sc(Nc2nnc(-c3ccc(-c4nnc(Nc5nc(C)c(C(C)=O)s5)o4)cc3)o2)nc1C | > 100 |
| CC1c2c(Cl)nc3ccccc3c2Oc2c1c(Cl)nc1ccccc21 | > 100 |
| COC1(OC)C(N(C)C)=C(Cl)C(=O)/C1=C/C=O | > 100 |
| OC1C#CCSCC#C/C=C\1 (stereo not given) | 36.6 |
| CC(=O)Oc1ccc2c(C)cc(=O)oc2c1OC(C)=O | > 100 |
| N#Cc1c2ccccc2cn1-c1ccc(F)cc1 | > 100 |
| Cc1ccccc1N1C(=O)C2C=CC(n3[nH]c(=O)n(Cc4ccccc4)c3=O)CC2C1=O (stereo not given) | > 100 |
| CN(CC(=O)O)c1ncc2c(n1)CCCC2 | > 100 |
| COc1ccc(/C=C2\N=C(SC)N(CN3CCOCC3)C2=O)cc1 | > 100 |
| O=C(Nc1nc(C23CC4CC(CC(C4)C2)C3)cs1)c1cc2ccc(O)cc2oc1=O | 22 |
